In patent publication US10981932B2, “Macrocyclic indole derivatives” (Bayer Aktiengesellschaft, priority 2016, dated 2021):
Structures can show the parent of a compound that is named as a salt. Where two headings read alike, the source gives them in different places.

Columns and labels:
SUDHL5 [1] = test: Anti-proliferative effect (CellTiter-Glo, 72 h), SUDHL5; assay type: cell-based; conditions: SUDHL5 cells, antiproliferation, median, read-out: Antiproli SUDHL5 [M] (median)
How it was run: (§1)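 72 h compound treatment, 37 °C humidified; CellTiter-Glo added, 10 min incubation, luminescence read; day 0 plate read in parallel for baseline.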

SUDHL5 [2] = test: Induction of cytotoxicity (CellTiter-Glo, 5 h), SUDHL5
Method: Therefore, cytotoxicity assays were run in parallel in SUDHL5 and SUDHL10 cells.
The different cell lines were plated in culture medium (RPMI 1640 [GIBCO #22400-089]supplemented with 10% Fetal Bovine Serum) at a density of 3.300 cells in 30 μl/well in a sterile, solid black, flat bottom, polystyrene, TC-treated 384-well microplate (Corning #3571) using Multidrop Combi Reagent Dispenser. As a control, medium without cells was also added to the plate. Cells were incubated in a humidified incubator at 37° C. overnight. On the next day, the cells were treated with compounds (stock solution, 10 mM in DMSO) using the HP D300 Digital Dispenser in a concentration range of 3.3×10e-5 M (33 μM) to 5×10e-9 M (5 nM) in a single-dot curve with at least 16 dilutions and a DMSO concentration of 0.33%. Rim wells were excluded. The cells were incubated for 5 h hours in a humidified incubator at 37° C. After this incubation, 30 μl of CellTiter-Glo@ Luminescent Cell Viability reagent (Promega, G7573) was added to each well using the Multidrop Combi Reagent Dispenser, followed by 15 min incubation on a shaker at room temperature. Finally, luminescence was read at 0.1 ms, with a gain of 3000 using the PHERAstar FS microplate reader (BMG Labtech).
The Bella DRC Master Sheet was used to calculate IC50s, with fixed CI=0 and C0=1.

A2780 = test: Anti-proliferative effect (CellTiter-Glo, 72 h), A2780; assay type: cell-based; conditions: A2780 cells, median, read-out: IC50 antiproliferation assay A2780 [M] (median)
How it was run: as §1

SUDHL5 [3] = test: Induction of caspase-3/7 activity (Caspase-Glo 3/7), SUDHL5; assay type: cell-based; conditions: caspase-3/7 induction, SUDHL5 cells, 3 h treatment, median
How it was run: (§2)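 DLBCL lines SUDHL5 and SUDHL10 treated with compounds for 3 h at 37 °C; caspase-3/7 activity read by Caspase-Glo 3/7 luminescence. Medium-only background subtracted; EC50 fitted with bottom fixed at 1 and top fixed at the reference compound's maximal induction.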

SUDHL10 [4] = test: Induction of cytotoxicity (CellTiter-Glo, 5 h), SUDHL10
SUDHL10 [5] = test: Anti-proliferative effect (CellTiter-Glo, 72 h), SUDHL10; assay type: cell-based; conditions: SUDHL10 cells, antiproliferation, median, read-out: Antiproli SUDHL10 [M] (median)
How it was run: as §1

SUDHL10 [6] = test: Induction of caspase-3/7 activity (Caspase-Glo 3/7), SUDHL10; assay type: cell-based; conditions: caspase-3/7 induction, SUDHL10 cells, 3 h treatment, median
How it was run: as §2

MV-4-11 = test: Anti-proliferative effect (CellTiter-Glo, 72 h), MV-4-11; assay type: cell-based; conditions: Homo sapiens, MV4-11, 72 h, MV-4-11 cells, median, read-out: IC50 antiproliferation assay MV-4-11 [M] (median)
How it was run: as §1

MCL-1 = MCL-1 (Homo sapiens, UniProt Q07820); test: Protein-protein interaction assay MCL-1/Noxa BH3 peptide (MCL-1 assay), TR-FRET; assay type: binding; conditions: MBP-MCL-1 / Noxa BH3-derived peptide, median
MCL-1, sequence (Q07820 whole entry): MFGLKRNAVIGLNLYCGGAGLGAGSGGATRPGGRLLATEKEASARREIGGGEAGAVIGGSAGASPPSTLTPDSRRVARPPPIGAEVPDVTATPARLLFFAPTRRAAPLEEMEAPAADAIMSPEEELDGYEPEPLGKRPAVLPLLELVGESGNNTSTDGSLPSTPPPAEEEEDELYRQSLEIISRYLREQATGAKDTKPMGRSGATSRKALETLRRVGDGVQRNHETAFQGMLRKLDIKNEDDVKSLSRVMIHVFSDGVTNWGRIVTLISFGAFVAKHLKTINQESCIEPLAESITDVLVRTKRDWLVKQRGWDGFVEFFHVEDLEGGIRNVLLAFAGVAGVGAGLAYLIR
How it was run: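 IC50 came from a 4-parameter fit of the normalized 665/620 nm TR-FRET ratio (anti-MBP Eu-cryptate/streptavidin-XL665). Compounds (0.1 nM–20 μM, duplicates) were preincubated 10 min at 22 °C with 1 nM MBP-MCL-1 in pH 7 Tris/NaCl/KF buffer, then read after 1 h at 22 °C plus overnight at 4 °C.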

[7] = Homo sapiens, SU-DHL10, 5 h, read-out: Cytotox SUDHL10 [M] (median), SUDHL10 cells, cytotoxicity induction, CellTiter-Glo, 5 h incubation, median
[8] = read-out: Cytotox SUDHL5 [M] (median), SUDHL5 cells, cytotoxicity induction, CellTiter-Glo, 5 h incubation, median
[9] = Homo sapiens, SU-DHL10, 72 h, 72 h incubation
[10] = read-out: Cytotox SUDHL10 [M] (median), SUDHL10 cells, cytotoxicity induction, CellTiter-Glo, 5 h incubation, median

Row | Compound | IC50 (SUDHL5 [1]; Homo sapiens, SU-DHL-5, 72 h, 72 h incubation) [M] | IC50 (A2780; Homo sapiens, A2780, 72 h) [M] | EC50 (SUDHL5 [3]; Homo sapiens, SU-DHL-5, 3 h) [µM] | IC50 (SUDHL10 [5]; 72 h incubation) [M] | EC50 (SUDHL10 [6]; Homo sapiens, SU-DHL10, 3 h) [µM] | IC50 (MV-4-11) [M] | IC50 (MCL-1) [µM] | IC50 (SUDHL5 [1]; 72 h incubation) [M] | EC50 (SUDHL5 [3]) [µM] | IC50 (SUDHL10 [5]; [9]) [M] | EC50 (SUDHL10 [6]) [µM] | IC50 (SUDHL5 [1]; Homo sapiens, SU-DHL-5, 72 h, 72 h) [M] | IC50 (SUDHL10 [5]; Homo sapiens, SU-DHL10, 72 h, 72 h) [M] | IC50 (A2780) [M] | IC50 (SUDHL5 [2]; Homo sapiens, SU-DHL-5, 5 h, read-out: Cytotox SUDHL5 [M] (median), SUDHL5 cells, cytotoxicity induction, CellTiter-Glo, 5 h incubation, median) | IC50 (SUDHL10 [4]; [7]) [M] | IC50 (SUDHL5 [2]; [8]) [M] | IC50 (SUDHL10 [4]; [10]) [M] | IC50 (SUDHL5 [2]; Homo sapiens, SU-DHL-5, 5 h, read-out: Cytotox SUDHL5 [M] (median), SUDHL5 cells, cytotoxicity induction, CellTiter-Glo, 5 h, median) | IC50 (SUDHL10 [4]; Homo sapiens, SU-DHL10, 5 h, read-out: Cytotox SUDHL10 [M] (median), SUDHL10 cells, cytotoxicity induction, CellTiter-Glo, 5 h, median)
1 | Cn1nc(CN2CCOCC2)c2c1COCC=CCn1c(C(=O)O)c(CCCOc3cccc4ccccc34)c3cccc-2c31 (single isomer, unassigned; enantiomer 1) [Example 133, (E/Z)-1-methyl-3-(morpholin-4-ylmethyl)-7-[3-(naphthalen-1-yloxy)propyl]-1,10,13,15-tetrahydropyrazolo[4′,3′:9,10][1,6]oxazacycloundecino[8,7,6-hi]indole-8-carboxylic acid-N-ethylethanamine Salt (Enantiomer 1)] | 1.62e-05 | 1.51e-05 | 17.6 | 4.25e-06 | 32.8 | 6.84e-06 | 0.0186 |  |  |  |  |  |  |  | 1.84e-05 | 2.95e-05 |  |  |  | 
2 | CCCc1nn(C)c2c1-c1c(C)ccc3c(CCCOc4cccc5ccccc45)c(C(=O)O)n(c13)CCCN(C)C2 (single isomer, unassigned; enantiomer 1) [Example 196, 7,9,12-trimethyl-1-[3-(naphthalen-1-yloxy)propyl]-11-propyl-4,5,6,7,8,9-hexahydropyrazolo[3′,4′:7,8][1,5]diazecino[9,10,1-hi]indole-2-carboxylic acid-N-ethylethanamine Salt (Enantiomer 1)] |  | 1.53e-05 |  | 2.19e-06 |  | 4.83e-06 | 0.00161 | 1.45e-06 | 1.39 |  | 2.85 |  |  |  |  |  | 1.36e-06 | 2.92e-06 |  | 
3 | Cc1cc(OCCCc2c(C(=O)O)n3c4c(cccc24)-c2c(C)nn(C)c2COCCC3)cc(C)c1Cl (single isomer, unassigned; enantiomer 2) [Example 015, 1-[3-(4-chloro-3,5-dimethylphenoxy)propyl]-9,11-dimethyl-5,6,8,9-tetrahydro-4H-pyrazolo[4′,3′:8,9][1,5]oxazecino[7,6,5-hi]indole-2-carboxylic acid-N-ethylethanamine Salt (Enantiomer 2)] |  |  |  | 8.48e-06 |  | 1.33e-05 | 0.00958 | 1.13e-05 | 25.7 |  | 29.2 |  |  | 1.23e-05 |  |  | 2.1e-05 | 2.87e-05 |  | 
4 | CCc1c2c(nn1C)CN(C)CCCn1c(C(=O)O)c(CCCOc3cccc4ccccc34)c3cccc-2c31 (single isomer, unassigned; enantiomer 2) [Example 143, 11-ethyl-7,10-dimethyl-1-[3-(1-naphthyloxy)propyl]-4,5,6,7,8,10-hexahydropyrazolo[3′,4′:7,8][1,5]diazecino[9,10,1-hi]indole-2-carboxylic acid-N-ethylethanamine Salt (Enantiomer 2)] |  |  |  | 2.02e-05 |  | 1.2e-05 | 0.0308 | 1.44e-05 | 25 |  | > 33 |  |  | 1.21e-05 |  |  | 1.36e-05 | 2.69e-05 |  | 
5 | CCc1c2c(nn1CCN1CCOCC1)COCCCCn1c(C(=O)O)c(CCCOc3cccc4ccccc34)c3cccc-2c31 (single isomer, unassigned; enantiomer 2) [Example 203, 3-ethyl-2-[2-(morpholin-4-yl)ethyl]-7-[3-(naphthalen-1-yloxy)propyl]-2,10,11,12,13,15-hexahydropyrazolo[4′,3′:9,10][1,6]oxazacycloundecino[8,7,6-hi]indole-8-carboxylic Acid (Enantiomer 2)] |  |  |  | 1.78e-06 |  | 2.8e-06 | 0.0021 | 2.19e-06 | 1.61 |  | 7.45 |  |  | 2.21e-05 |  |  | 1.32e-06 | 4.31e-06 |  | 

Now from value to compound, other results behind:

Row | IC50 (SUDHL5 [1]; Homo sapiens, SU-DHL-5, 72 h, 72 h incubation) [M] | IC50 (A2780; Homo sapiens, A2780, 72 h) [M] | EC50 (SUDHL5 [3]; Homo sapiens, SU-DHL-5, 3 h) [µM] | IC50 (SUDHL10 [5]; 72 h incubation) [M] | EC50 (SUDHL10 [6]; Homo sapiens, SU-DHL10, 3 h) [µM] | IC50 (MV-4-11) [M] | IC50 (MCL-1) [µM] | IC50 (SUDHL5 [1]; 72 h incubation) [M] | EC50 (SUDHL5 [3]) [µM] | IC50 (SUDHL10 [5]; [9]) [M] | EC50 (SUDHL10 [6]) [µM] | IC50 (SUDHL5 [1]; Homo sapiens, SU-DHL-5, 72 h, 72 h) [M] | IC50 (SUDHL10 [5]; Homo sapiens, SU-DHL10, 72 h, 72 h) [M] | IC50 (A2780) [M] | Compound | IC50 (SUDHL5 [2]; Homo sapiens, SU-DHL-5, 5 h, read-out: Cytotox SUDHL5 [M] (median), SUDHL5 cells, cytotoxicity induction, CellTiter-Glo, 5 h incubation, median) | IC50 (SUDHL10 [4]; [7]) [M] | IC50 (SUDHL5 [2]; [8]) [M] | IC50 (SUDHL10 [4]; [10]) [M] | IC50 (SUDHL5 [2]; Homo sapiens, SU-DHL-5, 5 h, read-out: Cytotox SUDHL5 [M] (median), SUDHL5 cells, cytotoxicity induction, CellTiter-Glo, 5 h, median) | IC50 (SUDHL10 [4]; Homo sapiens, SU-DHL10, 5 h, read-out: Cytotox SUDHL10 [M] (median), SUDHL10 cells, cytotoxicity induction, CellTiter-Glo, 5 h, median)
6 |  | 2.46e-05 |  |  |  | 1.8e-05 | 0.00777 | 6.23e-06 | 5.11 | 8.23e-06 | 16.1 |  |  |  | Cn1nc(CN2CC(F)(F)C2)c2c1COCCCCn1c(C(=O)O)c(CCCOc3cccc4ccccc34)c3cccc-2c31 (single isomer, unassigned; enantiomer 1) [Example 181, 3-[(3,3-difluoroazetidin-1-yl)methyl]-1-methyl-7-[3-(naphthalen-1-yloxy)propyl]-1,10,11,12,13,15-hexahydropyrazolo[4′,3′:9,10][1,6]oxazacycloundecino[8,7,6-hi]indole-8-carboxylic acid-N-ethylethanamine Salt (Enantiomer 1)] |  | 1.67e-05 | 6.68e-06 |  |  | 
7 |  | > 3.3e-05 |  | 1.2e-06 |  | 1.52e-06 | 0.0016 | 1.34e-06 | 0.803 |  | 2.9 |  |  |  | COCc1nn(C)c2c1-c1cccc3c(CCCOc4cccc5ccccc45)c(C(=O)O)n(c13)CCCCN(C)C2 (single isomer, unassigned; enantiomer 1) [Example 184, 3-(methoxymethyl)-1,14-dimethyl-7-[3-(naphthalen-1-yloxy)propyl]-10,11,12,13,14,15-hexahydro-1H-pyrazolo[3′,4′:8,9][1,6]diazacycloundecino[10,11,1-hi]indole-8-carboxylic acid-N-ethylethanamine Salt (Enantiomer 1)] |  |  | 8.82e-07 | 2.94e-06 |  | 
8 |  | 2.55e-05 |  |  |  | 2.58e-06 | 0.00273 | 3.23e-06 | 2.09 | 4.64e-06 | 7.16 |  |  |  | Cc1c2c(nn1C)CCCCCCn1c(C(=O)O)c(CCCOc3cccc4ccccc34)c3cccc-2c31 (single isomer, unassigned; enantiomer 1) [Example 191, 2,3-dimethyl-7-[3-(1-naphthyloxy)propyl]-10,11,12,13,14,15-hexahydro-2H-pyrazolo[4′,3′:4,5]azacycloundecino[3,2,1-hi]indole-8-carboxylic acid-N-ethylethanamine Salt (Enantiomer 1)] |  |  | 1.87e-06 | 5.01e-06 |  | 
9 |  | > 3.3e-05 | 24.5 |  | > 33 | 2.34e-05 | 0.0115 |  |  |  |  | 2.71e-05 | > 3.3e-05 |  | Cc1nn(C)c2c1-c1cccc3c(CCCOc4cccc5ccccc45)c(C(=O)O)n(c13)CCCCOC2 (single isomer, unassigned; enantiomer 1) [Example 317, (+)-1,3-dimethyl-7-[3-(naphthalen-1-yloxy)propyl]-1,10,11,12,13,15-hexahydropyrazolo[4′,3:9,10][1,6]oxazacycloundecino[8,7,6-hi]indole-8-carboxylic Acid (Enantiomer 1)] |  |  |  |  | 1.55e-05 | > 3.3e-05
